The source of these data is paper PMC10146957, “Systematic Studies on Anti-Cancer Evaluation of Stilbene and Dibenzo[b,f]oxepine Derivatives” (Molecules, 2023).

Read-outs that look alike come from different tables or passages of the source. Bounds are passed on as bounds.

On the set-up of data set [1]: method as in PMID 29318022. Conditions: generally well tolerated; cited from earlier work.
Data set [2] in a line: MTT cytotoxicity assay, HCT116 cells. The format is cell-based, human. Conditions: human, HCT116 cells (human colorectal carcinoma), 100 μM, 48 h of treatment, read-out: cell viability. As for the experimental part:
(§1) Cells were cultured in a humidified incubator at 37 °C under 5% CO2. Human colorectal carcinoma (HCT116) cells were grown in McCoy’s 5A Medium (ATCC, Catalog No. 30-2007), human breast adenocarcinoma (MCF-7) and human dermal fibroblasts (HDF-A) cells were maintained in Dulbecco’s Modified Eagle’s Medium (DMEM, Sigma D5546) supplemented with 2 mM L-glutamine. Human embryonic kidney (HEK293) cell line was cultured in Dulbecco’s Modified Eagle’s Medium (DMEM, Gibco 31966-021). All culture media were supplemented with 1% Penicillin-Streptomycin (Sigma-Aldrich, P4333) and 10% fetal bovine serum (Gibco, 10270-106). Cells were sub-cultured at approximately 80–90% confluency to maintain the culture in the logarithmic growth phase.
(§2) Cells were seeded at a 96-well plate at the density of 7 × 10^3 cells per well and allowed to grow for 24 h. Afterward, the medium was aspirated and fresh medium was added (200 μL) with serial dilutions (100 − 10 μM) of tested compounds or DMSO at corresponding concentrations as a control. Following 48 h of incubation, the medium was replaced with phenol red-free medium (100 μL) containing MTT (3-(4,5-dimethylthiazol-2-yl)-2,5-diphenyl-2H-tetrazolium bromide, 0.5 mg/mL) and replaced in the incubator for 4 h. The formed formazan was dissolved in DMSO (100 μL) followed by incubation of the mixture at 37 °C for 10 min. The absorbance was measured at 540 nm. After blank subtraction, the half maximal effective concentration (EC50) was calculated by GraphPad Prism software (GraphPad Software Inc, San Diego, CA, USA).

Data set [3] concerns HCT116 cells. The data set is described as follows: MTT cytotoxicity assay, HCT116 cells. It counts as cell-based, human. Conditions: for IC50: Homo sapiens, HCT-116, 48 h, mean ± SEM; for cell viability (in words): 100 μM, 48 h of treatment. The procedure:
as §1, §2
(In general: Formazan colour is commonly taken as a measure of viable cells.)

Another data set concerns MCF-7 cells. The data set is described as follows: MTT cytotoxicity assay, MCF-7 cells. Conditions: Homo sapiens, MCF7, 48 h, mean ± SEM. It counts as cell-based. The procedure: as §1, §2
The next data set has as its system HEK293 cells. Description: MTT cytotoxicity assay, HEK293 cells. The format is cell-based. Conditions: Homo sapiens, 48 h, mean ± SEM. As for the experimental part:
as §1, §2

For another data set, the system named is HDF-A cells. Description: MTT cytotoxicity assay, HDF-A cells. Conditions: Homo sapiens, HDFa. It counts as cell-based. As for the experimental part: as §1, §2
Data set [4] relates to HCT116 cells. The data set is described as follows: Immunofluorescence of microtubular network (anti-α-tubulin 12G10). Conditions: 60 µm of compound, 24 h, anti-α-tubulin staining. The format is cell-based, human. As for the experimental part:
Cells were seeded on coverslips at a 24-well plate at a density of 5 × 10^4 cells per well and allowed to grow overnight. Next medium was replaced with a medium containing 60 μM solution of the selected compound and incubated for 24 h. Then, cells were fixed and permeabilized with 100% methanol at −20 °C for 15 min and subsequently washed three times with PBS at room temperature. After 1 h blocking with 3% BSA/PBS at 4 °C, slides were incubated with anti-alpha-tubulin 12G10 primary antibody (Developmental Studies Hybridoma Bank, University of Iowa, Iowa City, IA, USA) (diluted to 2 µg/mL in 3% BSA/PBS) overnight at 4 °C. After 3 × 10 min washing with PBS, slides were incubated with AlexaFluor 555-conjugated secondary antibody (diluted to 50 ng/mL in 3% BSA/PBS) (Thermo Fisher Scientific, Waltham, MA, USA, A31570) for 1 h at room temperature. After washing (3 × 10 min with PBS), slides were mounted in Fluoromount-G (Southern Biotech., Birmingham, AL, USA). Cells were recorded using Leica TCS SP8 (Leica Microsystems, Wetzlar, Germany) confocal microscope.

The next data set relates to U87 (glioblastoma) cells. Set-up: method as in PMID 31865147. Conditions: cited from earlier work.
Data set [5] relates to HeLa (cervical cancer) cells. Set-up: method as in PMID 31865147. Conditions: cited from earlier work.
In the next data set the test system is normal cell lines. Set-up: method as in PMID 31865147. Conditions: cited from earlier work.
[6] abbreviates: MTT, 48 h, mean ± SEM, read-out: HDF-A IC50.

As a reminder, the melting point is the temperature, or range, at which the solid turns liquid. For the compound `COc1cccc(O)c1/C=C/c1ccc([N+](=O)[O-])cc1[N+](=O)[O-]`, the melting point is 212 °C.
`O=[N+]([O-])c1ccc2c(c1)C=Cc1ccc([N+](=O)[O-])cc1O2` returned a melting point of 216 °C.
Regarding `COc1ccc(/C=C\c2cc(OC)c(OC)c(OC)c2)cc1OP(=O)(O)O` [CA4P/fosbretabulin, combretastatin A-4 phosphate], the side effect entry in data set [1] was “acute but transient hypertension”.
For orientation: viability means a read-out of living cells in per cent, often relative to untreated cells. For orientation: IC50 means the concentration that inhibits the measured activity by half. As for `O=[N+]([O-])c1ccc(/C=C/c2ccccc2O)c([N+](=O)[O-])c1` [Compound 1a, (E)-2-hydroxy-2′,4′-dinitrostilbene], the melting point worked out at 192 °C. Also, the viability at 48 h, 100 µM in [2] is < 30%. This compound gave an IC50 in the data set on HCT116 cells [3] of 23 ± 1 µM. Half-maximal inhibition in the data set on MCF-7 cells (IC50) was put at 36 ± 2 µM. In the data set with HEK293 cells, this compound registered an IC50 of 18 ± 1 µM. For the same compound, the IC50 with HDF-A cells (setting [6]) came out at 38 ± 1 µM.
As for `COc1cccc(/C=C/c2ccc([N+](=O)[O-])cc2[N+](=O)[O-])c1O` [Compound 1b, (E)-2-hydroxy-3-methoxy-2′,4′-dinitrostilbene], the melting point is 182 °C. In addition, the “cell viability (in words)” value in the data set on HCT116 cells [3] is listed as “only minimally affected”.
As for `COc1ccc(/C=C/c2ccc([N+](=O)[O-])cc2[N+](=O)[O-])c(O)c1` [Compound 1c, (E)-2-hydroxy-4-methoxy-2′,4′-dinitrostilbene], the viability at 48 h, 100 µM in data set [2] is < 30%. The half-inhibitory concentration (IC50) came to 38 ± 5 µM in the data set with HCT116 cells [3], 43 ± 2 µM in the data set with MCF-7 cells, 34 ± 4 µM with HEK293 cells and 40 ± 4 µM in the data set with HDF-A cells (setting [6]).
As for `COc1ccc(O)c(/C=C/c2ccc([N+](=O)[O-])cc2[N+](=O)[O-])c1` [Compound 1d, (E)-2-hydroxy-5-methoxy-2′,4′-dinitrostilbene], the melting point was 168 °C. The viability at 48 h, 100 µM in data set [2] was < 30%. The compound also came in with an IC50 with HCT116 cells [3] of 18 ± 3 µM. This compound also yielded a concentration for half-maximal inhibition (IC50) in the data set on MCF-7 cells of 47 ± 1 µM. In the data set with HEK293 cells, inhibition was half-maximal at 33 ± 2 µM (IC50). Also, the half-maximal inhibitory concentration (IC50) in the data set with HDF-A cells (setting [6]) was 40 ± 2 µM. The “effect on microtubular network” value in the data set on HCT116 cells [4] is recorded as “density of the microtubular network was decreased”.
The compound `COc1cc(O)c(/C=C/c2ccc([N+](=O)[O-])cc2[N+](=O)[O-])cc1OC` [Compound 1f, (E)-2-hydroxy-4,5-dimethoxy-2′,4′-dinitrostilbene] came in with a melting point of 221 °C. Besides, the “cell viability (in words)” value with HCT116 cells [3] is recorded as “only minimally affected”.
As to `O=[N+]([O-])c1ccc(/C=C/c2ccc(O)cc2O)c([N+](=O)[O-])c1` [Compound 1i, (E)-2,4-dihydroxy-2′,4′-dinitrostilbene], the melting point was 201 °C. For the same compound, the viability at 48 h, 100 µM in data set [2] is < 30%. In addition, the IC50 in the data set with HCT116 cells [3] was found to be 52 ± 2 µM. In the data set with MCF-7 cells, this compound had an IC50 of 69 ± 3 µM. This compound displayed an IC50 in the data set on HEK293 cells of 54 ± 2 µM. For the same compound, in the data set on HDF-A cells (setting [6]), the IC50 is 41 ± 2 µM.
Compound `O=[N+]([O-])c1ccc2c(c1)Oc1ccccc1C=C2` [Compound 2a, 3-nitrodibenzo[b,f]oxepine] registered a melting point of 156 °C.
`COc1cccc2c1Oc1cc([N+](=O)[O-])ccc1C=C2` [Compound 2b, 6-methoxy-3-nitrodibenzo[b,f]oxepine] returned a melting point of 184 °C. Besides, in the data set with HCT116 cells [3], the “cell viability (in words)” value was “only minimally affected”.
As to `COc1ccc2c(c1)Oc1cc([N+](=O)[O-])ccc1C=C2` [Compound 2c, 3-methoxy-7-nitrodibenzo[b,f]oxepine], the melting point was determined as 189 °C.
On the same count and under the same terms, in the case of `COc1ccc2c(c1)C=Cc1ccc([N+](=O)[O-])cc1O2` [Compound 2d, 2-methoxy-7-nitrodibenzo[b,f]oxepine] it was 167 °C.
Take `COc1cc2c(cc1OC)Oc1cc([N+](=O)[O-])ccc1C=C2` [Compound 2f, 2,3-dimethoxy-7-nitrodibenzo[b,f]oxepine]: the “cell viability (in words)” value with HCT116 cells [3] is given as “only minimally affected”.
For `O=[N+]([O-])c1ccc2c(c1)Oc1ccc3ccccc3c1C=C2` [Compound 2h, 9-nitrobenzo[b]naphtho[1,2-f]oxepine], the melting point is 197 °C. The “anti-cancer activity compared with HTC116 cells” value in the data set with U87 (glioblastoma) cells is reported as “significantly more active”. Besides, the “anti-cancer activity compared with HTC116 cells” value in [5] is listed as “significantly more active”. The “activity in normal cell lines” value with normal cell lines is recorded as “severe activity”.
Regarding `O=[N+]([O-])c1ccc2c(c1)Oc1cc(O)ccc1C=C2` [Compound 2i, 7-nitrodibenzo[b,f]oxepin-3-ol], the melting point came out at 164 °C. In data set [2], the viability at 48 h, 100 µM is < 30%. This compound also showed a 50% inhibitory concentration (IC50) with HCT116 cells [3] of 55 ± 4 µM. The half-inhibitory concentration (IC50) in the data set with MCF-7 cells came to 67 ± 6 µM. For the same compound, the IC50 in the data set with HEK293 cells is 88 ± 5 µM. Moreover, the IC50 in the data set with HDF-A cells (setting [6]) was 93 ± 7 µM.
`CC(=O)Oc1ccc2c(c1)Oc1cc([N+](=O)[O-])ccc1C=C2` [Compound 2j, 7-nitrodibenzo[b,f]oxepin-3-yl acetate] returned a melting point of 133 °C. For the same compound, the viability at 48 h, 100 µM in data set [2] is < 30%. The compound also displayed a 50% inhibitory concentration (IC50) in the data set with HCT116 cells [3] of 53 ± 3 µM. In the data set on MCF-7 cells, this compound displayed an IC50 of 36 ± 3 µM. This compound also showed an IC50 in the data set on HEK293 cells of 85 ± 4 µM.
For the compound `COc1cccc2c1Oc1cc(N)ccc1C=C2` [Compound 3b, 6-methoxydibenzo[b,f]oxepin-3-amine], the “cell viability (in words)” value in the data set on HCT116 cells [3] was “only minimally affected”.
In turn, `COc1ccc2c(c1)C=Cc1ccc(N)cc1O2` [Compound 3d, 8-methoxydibenzo[b,f]oxepin-3-amine] showed a melting point of 158 °C.
As for `COc1cc2c(cc1OC)Oc1cc(N)ccc1C=C2` [Compound 3f, 7,8-dimethoxydibenzo[b,f]oxepin-3-amine], the “cell viability (in words)” value in the data set on HCT116 cells [3] is “only minimally affected”.
Turning to `Nc1ccc2c(c1)Oc1ccc3ccccc3c1C=C2` [Compound 3h, benzo[b]naphtho[1,2-f]oxepin-9-amine], the melting point was found to be 172 °C. Further, in [2], the viability at 48 h, 100 µM is < 30%. In the data set on HCT116 cells [3], half-maximal inhibition (IC50) required 66 ± 2 µM. This compound also returned a half-inhibitory concentration (IC50) with HEK293 cells of 48 ± 3 µM. Also, in the data set on HDF-A cells (predicted IC50, above the maximum concentration tested (100 μM), read-out: HDF-A IC50 (predicted)), the IC50 is > 100 µM.
Compound `CC(=O)Oc1ccc2c(c1)Oc1cc(N)ccc1C=C2` [Compound 3j, 7-aminodibenzo[b,f]oxepin-3-yl acetate] registered a melting point of 145 °C.
